# Measured values as given in US11008346B2, “Beta-lactamase inhibitors” (priority 2014, dated 2021).
# Like-named read-outs stand apart in the source and are kept apart here.
# Legend:
# [1] = test system: E. cloacae 144200 expressing Class C P99 AmpC; assay: broth microdilution MIC, E. cloacae P99; assay type: cell-based; details: Fixed CAZ (ceftazidime) 4 μg/mL
# Summary of the method: (§1)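 Potentiation MICs were run by CLSI broth microdilution in cation-adjusted Mueller Hinton broth, with test compound serially diluted 2-fold from 32 to 0.25 μg/mL against a fixed 4 μg/mL beta-lactam overlay. Plates were incubated 16-20 hours at 37° C and the MIC was read visually.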
# SHV-5 β-lactamase = molecular target: T1, SHV-5 β-lactamase (Klebsiella pneumoniae, UniProt P0A3M1); assay: β-lactamase enzyme inhibition, SHV-5; assay type: biochemical
# T1 construct: made in house; host or cells: E. coli BL21(DE3)
# T1 sequence (P0A3M1 22-286): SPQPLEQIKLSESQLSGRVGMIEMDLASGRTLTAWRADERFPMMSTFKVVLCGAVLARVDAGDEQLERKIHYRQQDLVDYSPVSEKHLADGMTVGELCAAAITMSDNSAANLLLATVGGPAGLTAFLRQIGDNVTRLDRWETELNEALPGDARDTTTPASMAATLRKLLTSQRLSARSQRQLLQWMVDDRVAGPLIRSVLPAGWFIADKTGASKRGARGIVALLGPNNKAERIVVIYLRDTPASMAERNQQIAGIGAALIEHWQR
# Summary of the method: (§2)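 Enzyme + inhibitor, 15 min, 37° C; substrate added, absorbance read 10 min. OXA-1/p99 AmpC: nitrocefin 100 μM final, A486. KPC-2: imipenem, A300. SHV-5: cefotaxime, A260. IC50 = 50% drop in initial hydrolysis rate vs no-inhibitor control.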
# KPC-2 β-lactamase = molecular target: T2, KPC-2 β-lactamase (Klebsiella pneumoniae, UniProt Q9F663); assay: β-lactamase enzyme inhibition, KPC-2; assay type: biochemical
# T2 construct: made in house; host or cells: E. coli BL21(DE3)
# T2 sequence (Q9F663 25-293, looked up): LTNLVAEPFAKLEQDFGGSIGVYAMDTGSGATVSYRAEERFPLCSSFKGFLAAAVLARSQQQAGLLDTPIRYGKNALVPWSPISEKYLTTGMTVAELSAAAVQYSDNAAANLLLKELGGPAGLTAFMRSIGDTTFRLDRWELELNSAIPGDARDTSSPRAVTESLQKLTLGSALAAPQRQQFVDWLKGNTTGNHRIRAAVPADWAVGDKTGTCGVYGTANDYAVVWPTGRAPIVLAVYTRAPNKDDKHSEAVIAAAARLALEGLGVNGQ
# Summary of the method: as §2
# [2] = test system: K. pneumoniae A-1797 expressing KPC-2 and VIM-4; assay: broth microdilution MIC, K. pneumoniae KPC-2 and VIM-4; assay type: cell-based; details: Fixed Mero (meropenem) 4 μg/mL
# Summary of the method: as §1
# OXA-1 β-lactamase = molecular target: T3, OXA-1 β-lactamase (Escherichia coli, UniProt P13661); assay: β-lactamase enzyme inhibition, OXA-1; assay type: biochemical; details: Nitrocefin 100 μM, 486 nm; 15 min at 37° C. preincubation; read-out: IC50 OXA-1 (Class D)
# T3 construct: made in house; host or cells: E. coli BL21(DE3)
# T3 sequence (P13661 26-276): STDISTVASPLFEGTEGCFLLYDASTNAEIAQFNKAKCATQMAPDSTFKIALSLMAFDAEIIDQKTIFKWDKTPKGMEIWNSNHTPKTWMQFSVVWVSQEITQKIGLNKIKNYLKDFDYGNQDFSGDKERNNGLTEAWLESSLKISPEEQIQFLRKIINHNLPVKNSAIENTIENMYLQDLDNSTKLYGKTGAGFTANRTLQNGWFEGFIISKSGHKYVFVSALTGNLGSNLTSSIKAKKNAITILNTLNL
# Summary of the method: as §2
# [3] = test system: K. pneumoniae 156319 expressing KPC-3; assay: broth microdilution MIC, K. pneumoniae KPC-3; assay type: cell-based; details: Fixed Mero (meropenem) 4 μg/mL
# Summary of the method: as §1
# [4] = molecular target: T4, VIM-2 metallo β-lactamase (Pseudomonas aeruginosa, UniProt Q9K2N0); assay: β-lactamase enzyme inhibition, VIM-2; assay type: biochemical; details: Nitrocefin 100 μM, 486 nm; 15 min at 37° C. preincubation; read-out: IC50 VIM-2 (Class B)
# T4 construct: made in house; host or cells: E. coli BL21(DE3)
# Summary of the method: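 Inhibitor and enzyme sat together 15 min at 37° C before 100 μM nitrocefin (final) was added and 486 nm absorbance read for 10 min. IC50 is the concentration halving initial hydrolysis rate relative to uninhibited wells. Protein came from Q sepharose anion exchange at pH 7.5, repeated to >90% purity.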
# [5] = test system: P. aeruginosa Ps296 expressing VIM-2; assay: broth microdilution MIC, P. aeruginosa VIM-2; assay type: cell-based; details: Fixed Mero (meropenem) 4 μg/mL
# Summary of the method: as §1
# [6] = test system: S. aureus MSSA-7 producing penicillinase PC-1; assay: broth microdilution MIC, S. aureus PC-1; assay type: cell-based; details: Fixed Pip (piperacillin) 4 μg/mL
# Excerpt: To determine the ability of test compounds to potentiate the inhibition of the growth of bacterial strains that produce beta-lactamase enzymes, classic cell based broth microdilution MIC assays were employed. Six bacteria strains producing beta-lactamase enzymes were used: E. coli expressing the Class A Extended Spectrum Beta-Lactamase (ESBL) CTX-M-15, E. cloacae expressing the Class C P99, K. pneumoniae expressing the Class A carbapenemase KPC-3, P. aeruginosa expressing the Class B carbapenemase VIM-2, K pneumoniae expressing the class A carbapenemase KPC-2 and the class B carbapenemase VIM-4, and S. aureus producing the Class A penicillinase PC-1. The assay was conducted in Cation Adjusted Mueller Hinton Broth (CAMHB, BD #212322, BD Diagnostic Systems, Sparks, Md.). Bacteria strains were grown for 3-5 hours in CAMBH broth. Test compounds were added to a microtiter plate in 2-fold serial dilutions in CAMHB in a final concentration range of 32 μg/mL to 0.25 μg/ml. An overlay of CAMHB containing a Beta-lactam was added to the compounds at a final static concentration of 4 μg/ml. […] In addition to the titration of test compounds the MICs of a panel of control beta-lactams is also tested to ensure the strains are behaving consistently from test to test. Once the test compound and antibiotics are added the plates can be inoculated according to CLSI broth microdilution method. After inoculation the plates are incubated for 16-20 hours at 37° C., then the Minimal Inhibitory Concentration (MIC) of the test compound is determined visually.
# Using the methodology described above, examples of the current invention were evaluated for their ability to inhibit the growth of β-lactamase-producing bacteria in the presence of a β-lactam antibiotic.
# Representative results are shown in Table 4 where A represents an MIC of the fixed β-lactam antibiotic in the presence of >32 µg/mL of a β-lactamase inhibitor of exemplary compounds, B represents the MIC in the presence of between 8 and 32 µg/mL of a β-lactamase inhibitor of exemplary compounds, and C represents the MIC in the presence of ≤4 µg/mL of a β-lactamase inhibitor of exemplary compounds. NT=Not Tested.
# p99 AmpC β-lactamase = molecular target: T5, p99 AmpC β-lactamase (Enterobacter cloacae, UniProt P05364); assay: β-lactamase enzyme inhibition, p99 AmpC; assay type: biochemical
# T5 construct: made in house; host or cells: E. coli BL21(DE3)
# T5 sequence (P05364 21-381): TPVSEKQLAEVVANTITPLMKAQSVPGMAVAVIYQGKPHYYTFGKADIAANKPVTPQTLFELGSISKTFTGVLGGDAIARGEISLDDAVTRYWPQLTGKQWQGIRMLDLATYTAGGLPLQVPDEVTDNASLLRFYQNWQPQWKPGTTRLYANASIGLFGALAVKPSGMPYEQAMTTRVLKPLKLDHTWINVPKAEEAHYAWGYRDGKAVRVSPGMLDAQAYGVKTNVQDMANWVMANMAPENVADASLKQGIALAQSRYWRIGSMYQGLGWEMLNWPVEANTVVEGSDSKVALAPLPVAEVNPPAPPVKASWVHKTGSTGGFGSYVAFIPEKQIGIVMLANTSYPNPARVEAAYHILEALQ
# Summary of the method: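 Inhibitor and enzyme were incubated 15 min at 37°C first. The enzyme was recombinant p99 AmpC, untagged, from E. coli BL21(DE3), purified by ion-exchange and size-exclusion chromatography.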
# [7] = test system: E. coli ESBL4 expressing CTX-M-15; assay: broth microdilution MIC, E. coli CTX-M-15; assay type: cell-based; details: Fixed CAZ (ceftazidime) 4 μg/mL
# Summary of the method: as §1
# [8] = imipenem substrate, 300 nm, 15 min at 37° C. preincubation, read-out: IC50 KPC-2 (Class A)
Compound,"MIC of exemplary compounds in presence of fixed β-lactams, E. cl. 144200 p99 AmpC [1]",IC50 (SHV-5 β-lactamase) [nM],IC50 (KPC-2 β-lactamase; [8]) [nM],"MIC of exemplary compounds in presence of fixed β-lactams, K.P. A-1797 KPC-2 VIM-4 [2]",IC50 (OXA-1 β-lactamase) [nM],"MIC of exemplary compounds in presence of fixed β-lactams, K.P. 156319 KPC-3 [3]",IC50 [4] [nM],"MIC of exemplary compounds in presence of fixed β-lactams, P. aerug. Ps296 VIM-2 [5]","MIC of exemplary compounds in presence of fixed β-lactams, S. aureus MSSA-7 PC-1 [6]",IC50 (p99 AmpC β-lactamase) [nM],"MIC of exemplary compounds in presence of fixed β-lactams, E. coli ESBL4 CTX-M-15 [7]",IC50 (KPC-2 β-lactamase) [nM]
"O=C(/C=C/Cl)N[C@H]1Cc2cccc(C(=O)O)c2OB1O [Example 12, (R)-3-(3-Chloro-acryloylamino)-2-hydroxy-3,4-dihydro-2H-benzo[e][1,2]oxaborinine-8-carboxylic acid]",C (C represents the MIC in the presence of ≤4 g/mL of a β-lactamase inhibitor),< 100,< 100,A (A represents an MIC of the fixed β-lactam antibiotic in the presence of >32 g/mL of a β-lactamase inhibitor),< 100,B (B represents the MIC in the presence of between 8 and 32 g/mL of a β-lactamase inhibitor),100 to 1000,B (B represents the MIC in the presence of between 8 and 32 g/mL of a β-lactamase inhibitor),C (C represents the MIC in the presence of ≤4 g/mL of a β-lactamase inhibitor),< 100,C (C represents the MIC in the presence of ≤4 g/mL of a β-lactamase inhibitor),–
"CC(=O)CCCC(=O)N[C@H]1Cc2cccc(C(=O)O)c2OB1O [Example 13, (R)-2-Hydroxy-3-(5-oxo-hexanoylamino)-3,4-dihydro-2H-benzo[e][1,2]oxaborinine-8-carboxylic acid]",C (C represents the MIC in the presence of ≤4 g/mL of a β-lactamase inhibitor),< 100,100 to 1000,C (C represents the MIC in the presence of ≤4 g/mL of a β-lactamase inhibitor),< 100,C (C represents the MIC in the presence of ≤4 g/mL of a β-lactamase inhibitor),100 to 1000,C (C represents the MIC in the presence of ≤4 g/mL of a β-lactamase inhibitor),C (C represents the MIC in the presence of ≤4 g/mL of a β-lactamase inhibitor),< 100,C (C represents the MIC in the presence of ≤4 g/mL of a β-lactamase inhibitor),–
"N#CCCCC(=O)N[C@H]1Cc2cccc(C(=O)O)c2OB1O [Example 14, (R)-3-(4-Cyano-butyrylamino)-2-hydroxy-3,4-dihydro-2H-benzo[e][1,2]oxaborinine-8-carboxylic acid]",C (C represents the MIC in the presence of ≤4 g/mL of a β-lactamase inhibitor),< 100,< 100,B (B represents the MIC in the presence of between 8 and 32 g/mL of a β-lactamase inhibitor),< 100,C (C represents the MIC in the presence of ≤4 g/mL of a β-lactamase inhibitor),1000 to 10000,C (C represents the MIC in the presence of ≤4 g/mL of a β-lactamase inhibitor),C (C represents the MIC in the presence of ≤4 g/mL of a β-lactamase inhibitor),< 100,C (C represents the MIC in the presence of ≤4 g/mL of a β-lactamase inhibitor),–
"CN(C)C(=O)CCC(=O)N[C@H]1Cc2cccc(C(=O)O)c2OB1O [Example 15, (R)-3-(3-Dimethylcarbamoyl-propionylamino)-2-hydroxy-3,4-dihydro-2H-benzo[e][1,2]oxaborinine-8-carboxylicacid]",C (C represents the MIC in the presence of ≤4 g/mL of a β-lactamase inhibitor),< 100,< 100,A (A represents an MIC of the fixed β-lactam antibiotic in the presence of >32 g/mL of a β-lactamase inhibitor),< 100,C (C represents the MIC in the presence of ≤4 g/mL of a β-lactamase inhibitor),10000 to 100000,B (B represents the MIC in the presence of between 8 and 32 g/mL of a β-lactamase inhibitor),C (C represents the MIC in the presence of ≤4 g/mL of a β-lactamase inhibitor),< 100,C (C represents the MIC in the presence of ≤4 g/mL of a β-lactamase inhibitor),–
"NC(=O)CCC(=O)N[C@H]1Cc2cccc(C(=O)O)c2OB1O [Example 16, (R)-3-(3-Carbamoyl-propionylamino)-2-hydroxy-3,4-dihydro-2H-benzo[e][1,2]oxaborinine-8-carboxylic acid]",C (C represents the MIC in the presence of ≤4 g/mL of a β-lactamase inhibitor),100 to 1000,–,B (B represents the MIC in the presence of between 8 and 32 g/mL of a β-lactamase inhibitor),< 100,C (C represents the MIC in the presence of ≤4 g/mL of a β-lactamase inhibitor),100 to 1000,C (C represents the MIC in the presence of ≤4 g/mL of a β-lactamase inhibitor),C (C represents the MIC in the presence of ≤4 g/mL of a β-lactamase inhibitor),< 100,C (C represents the MIC in the presence of ≤4 g/mL of a β-lactamase inhibitor),< 100
